From paper PMC10139033, “Identification of Potential p38γ Inhibitors via In Silico Screening, In Vitro Bioassay and Molecular Dynamics Simulation Studies” (International Journal of Molecular Sciences, 2023)
pIC50: −log10 of the molar value. Like-named read-outs stand apart in the source and are kept apart here.

Tests used:
p38γ [1] = target: T1, p38γ (Homo sapiens, UniProt P53778); set-up: method as in PMID 29758280; settings: read-out: experimental IC50 on p38γ; cited from earlier work
T1 construct: purchased Promega
T1 sequence (P53778 1-367): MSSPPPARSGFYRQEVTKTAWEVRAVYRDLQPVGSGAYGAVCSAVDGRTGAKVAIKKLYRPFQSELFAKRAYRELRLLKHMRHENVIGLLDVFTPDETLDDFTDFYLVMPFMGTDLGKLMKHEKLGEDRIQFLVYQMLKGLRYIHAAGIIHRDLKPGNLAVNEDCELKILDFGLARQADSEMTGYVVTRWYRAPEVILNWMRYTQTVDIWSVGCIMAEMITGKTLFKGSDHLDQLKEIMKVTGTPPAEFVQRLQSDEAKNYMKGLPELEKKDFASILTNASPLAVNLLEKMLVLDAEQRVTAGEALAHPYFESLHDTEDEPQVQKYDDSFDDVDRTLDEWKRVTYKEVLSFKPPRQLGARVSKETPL

p38γ [2] = target: T1, p38γ; test: p38γ kinase enzyme system with ADP-Glo kinase assay; type: biochemical
Description: The inhibitory assay of p38γ was performed using the p38γ kinase enzyme system (Promega, Madison, WI, USA) with the ADP-Glo™ kinase assay kit (Promega, Madison, WI, USA). The kinase reactions were conducted in a total assay volume of 5 μL in a white 384-well plate. The kinase reaction mixture per well was composed using the reaction buffer supplemented with 50μM DTT and contained 50 ng p38γ, 1μg p38 substrate, 50 μM ATP, and the tested compound at the specified concentrations. Positive control wells receive 5% DMSO instead of 1 μL of the compound solution, and negative control wells are without both compound and enzyme in the reaction. After incubation of the plates at room temperature for 60 min, the reaction was stopped with 5 μL of ADP-Glo™ reagent for 40 min. Next, 10 µL of kinase detection reagent was added and incubated for another 30 min to convert the ADP to ATP. The ATP was then detected by measuring the luminescence using a Victor Nivo multimode microplate reader (PerkinElmer, Waltham, MA, USA) in an integration time of 1 s per well. The relative kinase activity was calculated as follows: p38γ kinase activity %=Lumenescence of compound−luminescence of negative control /Lumenescence of positive control−luminescence of negative control ×100%
(§1) All data were collected from triplicate experiments and presented as the mean ± standard deviation of the mean. Data were analyzed using Graph Prism v9.0.0.121. One sample t test was used to calculate the statistical significance of the differences. p < 0.05 was considered statistically significant. The four-parameter dose-response curves and IC50 values were determined by a non-linear regression curve fitting method.

Huh7 cells = test: CCK-8 cytotoxicity assay, Huh7; type: cell-based, human
Description: (§2) The compounds were tested for HCC cell lines using the Cell Counting Kit-8 (CCK-8) (Absin, Shanghai, China). The human HCC cell lines Huh7 and HepG2 were cultured in high-glucose Dulbecco’s modified Eagle’s medium (DMEM) supplemented with 10% fetal bovine serum (FBS), 1% penicillin, and 1% penicillin/streptomycin at 37 °C with 5% CO2. Huh7 and HepG2 cells were seeded into white 96-well plates at 3 × 10^3 cells per well in 100 μL suspension and pre-incubated overnight. The cells were then treated with different compound concentrations and incubated for 48 h. Control wells just contained cell suspension, while blank wells were added with complete media. The effects on proliferation were determined by the addition of 10 µL CCK-8 reagent, followed by incubation for 1 h. Finally, the absorbance of the reaction was measured at 450 nm using a Victor Nivo Multimode Microplate Reader. Cell viability was calculated as follows: Cell viability%= experimental well absorbance−blank well absorbance /control well absorbance−blank well absorbance ×100%
as §1

HepG2 cells = test: CCK-8 cytotoxicity assay, HepG2; type: cell-based, human
Description: as §2, §1

SMILES: Cc1ccc(=O)n(-c2ccccc2)c1 [pirfenidone]
- pIC50 (p38γ [1]): < 3.90

SMILES: O=C(C1CC(=O)N(C2CCS(=O)(=O)C2)C1)N1CCC(c2c[nH]c3ncccc23)CC1 (centres unmarked) [compound 2, 1-(1,1-dioxothiolan-3-yl)-4-[4-(1H-pyrrolo [2,3-b]pyridin-3-yl)piperidine-1-carbonyl]pyrrolidin-2-one]
- reduction of p38γ activity (p38γ [2]; 1 μM): 72.43%
- reduction of p38γ activity (p38γ [2]; 10 μM): 93.12%
- reduction of p38γ activity (p38γ [2]; 100 μM): 96.18%
- pIC50 (p38γ [2]; 12-point four-fold dilution from 100 μM, 50 μM ATP): 7.77
- effect on viability of Huh7 cells (Huh7 cells; 1 µM, 48 h): no effect
- effect on HCC cell growth (Huh7) (Huh7 cells; 10 and 100 µM, 48 h): potent inhibitory effects
- pIC50 (Huh7 cells; Homo sapiens, Huh-7, 48 h treatment): 4.93
- effect on viability of HepG2 cells (HepG2 cells; 1 µM, 48 h): no effect
- effect on HCC cell growth (HepG2) (HepG2 cells; 10 and 100 µM, 48 h): potent inhibitory effects
- pIC50 (HepG2 cells; Homo sapiens, HepG2, 48 h treatment): 4.72
